Where a name gives a salt, the structure may show the parent alone. Read-outs that look alike come from different tables or passages of the source.
Assays:
[1] = system: striped flea beetle; experiment: Test as a seed treatment agent used in combination with a synthetic pyrethroid agent (rapeseeds); type: in vivo; details: Treatment amount 500 g/100 kg of seeds
Description: (§1) Immediately after that, the vinyl bag was closed, and the rapeseeds were coated with the chemical by vigorously shaking for 30 seconds. These seeds were spread over a tray and then air-dried at room temperature overnight to obtain rapeseeds coated with 500 g of acetamiprid per 100 kg of seeds.
as §1, with “g of bifenthrin and 500 g of acetamiprid per” for “g of acetamiprid per”
The obtained seeds were seeded in a No. 2 pot containing alluvial soil and then cultivated in a greenhouse. […] 2 days after standing, the number of incidences of insect damage due to imagines of striped flea beetle of 3 plants in each experimental plot was counted.

[2] = Measurement of saturated solubility; type: physicochemical; details: for saturated solubility: after standing at 25° C. for 192 hours; for Concentration of acetamiprid: distilled water at 25° C.
Procedure: After weighing a fixed amount of each of the Clathrate compounds 1 to 4 obtained in Examples 1 to 4 and an acetamiprid as a control in a measuring flask, distilled water at 25° C. was added to obtain an equal volume. After stoppering and up-and-down shaking for 5 times, the measuring flask was allowed to stand in an incubator at 25° C. After up-and-down shaking for 5 times followed by sampling with the passage of time, water at 25° C. was added to obtain an equal volume again, and sampling was carried out up to 192 hours. The concentration of acetamiprid in the sampled solution was measured by HPLC and then the saturated solubility was calculated.

[3] = cited from earlier work

SMILES | saturated solubility [2] [ppm] | Concentration of acetamiprid ([2]; 1 hour) | Concentration of acetamiprid ([2]; 3 hours) | Concentration of acetamiprid ([2]; 24 hours) | Concentration of acetamiprid ([2]; 48 hours) | Concentration of acetamiprid ([2]; 72 hours) | Concentration of acetamiprid ([2]; 192 hours) | aqueous solubility ([3]; temperature not given) | further results
Cc1c(COC(=O)[C@@H]2[C@H](/C=C(\Cl)C(F)(F)F)C2(C)C)cccc1-c1ccccc1 (racemic) [Bifenthrin] |  |  |  |  |  |  |  |  | Insecticidal ratio % after 15 days [1]: 75.4%; Number of incidences of insect damage/3 plants after 15 days [1]: 98
C/C(=N\C#N)N(C)Cc1ccc(Cl)nc1 [Acetamiprid, (E)-N1-[(6-chloro-3-pyridyl)methyl]-N2-cyano-N1-methylacetamidine, reference compound] | 3807 | 2,822 ppm | 3,273 ppm | 3,734 ppm | 3,776 ppm | 3,752 ppm | 3,807 ppm |  | aqueous solubility ([3]; 25° C.): 4200 ppm
CC(=NC#N)N(C)Cc1ccc(Cl)nc1.CC(=NC#N)N(C)Cc1ccc(Cl)nc1.Oc1ccc(C(c2ccc(O)cc2)C(c2ccc(O)cc2)c2ccc(O)cc2)cc1 [Clathrate compound 1] | 232 | 121 ppm | 134 ppm | 193 ppm | 210 ppm | 221 ppm | 232 ppm |  | 
CC(=NC#N)N(C)Cc1ccc(Cl)nc1.CO.Oc1ccc(C(c2ccc(O)cc2)C(c2ccc(O)cc2)c2ccc(O)cc2)cc1 [Clathrate compound 2] | 238 | 72 ppm | 79 ppm | 161 ppm | 200 ppm | 217 ppm | 238 ppm |  | 
CC(=NC#N)N(C)Cc1ccc(Cl)nc1.CCO.Oc1ccc(C(c2ccc(O)cc2)C(c2ccc(O)cc2)c2ccc(O)cc2)cc1 [Clathrate compound 3] | 230 | 156 ppm | 156 ppm | 163 ppm | 179 ppm | 200 ppm | 230 ppm |  | 
ClC=CCCl [D-D, 1,3-dichloropropene] |  |  |  |  |  |  |  | 2000 ppm | 
COP(=O)(NC(C)=O)SC (centres unmarked) [acephate, O,S-dimethyl-N-acetylphosphoroamide thioate] |  |  |  |  |  |  |  | about 650000 ppm | 
CNC(=O)Oc1cccc2c1OC(C)(C)O2 [bendiocarb, 2,2-dimethyl-1,3-benzodioxol-4-yl-methylcarbamate.hydrochloride] |  |  |  |  |  |  |  |  | aqueous solubility ([3]; 25° C.): 26000 ppm
CCSCc1ccccc1OC(=O)NC [ethiofencarb, 2-ethylthiomethylphenylmethylcarbamate] |  |  |  |  |  |  |  |  | aqueous solubility ([3]; 20° C.): 1800 ppm
CNC(=O)ON=C(C)SC [methomyl, S-methyl-N-(methylcarbamoyloxy)thioacetimidate] |  |  |  |  |  |  |  | 58000 ppm | 
CCN(Cc1ccc(Cl)nc1)/C(=C/[N+](=O)[O-])NC [nitenpyram, (E)-N-(6-chloro-3-pyridylmethyl)-N-ethyl-N′-methyl-2-nitrovinylidenediamine] |  |  |  |  |  |  |  | about 2000 ppm | 
CN1COCN(Cc2cnc(Cl)s2)/C1=N\[N+](=O)[O-] [thiamethoxam] |  |  |  |  |  |  |  |  | aqueous solubility ([3]; 25° C.): 4100 ppm

— patent publication US7737309B2, “Clathrate compound, method for controlling concentration of aqueous agricultural chemical active ingredient solution, and agricultural chemical formulation” (Nippon Soda Co., Ltd., priority 2004, dated 2010)
